# Laboratory results from patent publication US20040082623A1, “Fmoc-l-leucine and derivatives thereof as ppar-gamma agonists” (priority 2003, published 2004).
# Experiments:
# PPARγ2 [1] = biological target: T1, PPARγ2 (Homo sapiens, UniProt P37231); experiment: Transient transfection, PPARγ2 reporter in RK13 cells; format: cell-based; design: a construct containing the entire cDNA of the human PPARγ2 (hPPARγ2); expressed in transfected cells; host or cells: Hep G2, RK13 or CV1 cells; conditions: RK13 cells, 10^−5 M added
# T1 sequence (P37231 1-505): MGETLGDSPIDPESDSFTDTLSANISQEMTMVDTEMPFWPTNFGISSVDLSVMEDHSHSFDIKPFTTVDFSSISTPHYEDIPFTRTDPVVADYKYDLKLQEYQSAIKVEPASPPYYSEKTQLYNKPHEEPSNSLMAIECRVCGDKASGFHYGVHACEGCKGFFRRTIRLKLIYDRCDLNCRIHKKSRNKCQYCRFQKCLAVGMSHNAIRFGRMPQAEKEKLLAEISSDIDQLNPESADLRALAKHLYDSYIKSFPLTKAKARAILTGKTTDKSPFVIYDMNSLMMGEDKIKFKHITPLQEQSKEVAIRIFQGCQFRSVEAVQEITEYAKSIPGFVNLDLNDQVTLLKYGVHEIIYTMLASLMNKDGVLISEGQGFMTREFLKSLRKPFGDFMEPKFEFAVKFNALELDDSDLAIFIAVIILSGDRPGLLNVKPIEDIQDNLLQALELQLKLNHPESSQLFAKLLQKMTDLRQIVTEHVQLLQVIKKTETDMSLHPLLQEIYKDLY
# Procedure: (§1) RK13 cells (A and D), CV1 cells (B) or Hep G2 cells (C) were co-transfected with an expression vector for PPARγ2 (0.1 μg/well), pGL3-(Jwt)3TKLuc reported construct (0.5 μg/well), and pCMV-βGal (0.5 μg/well), as a control of transfection efficiency (0.5 μg/well). They were then grown during 24 h in the presence or absence of indicated compound. Activation is expressed as relative luciferase activity/β ? galactosidase activity. Each point was performed in triplicate, and each figure i ? representative of four independent experiments.
# (§2) The CV1, RK-13, and Hep G2 cell lines were obtained from ATCC (Rockville, Md.). Cells were maintained in Dulbecco's modified Eagle's minimal essential medium (DMEM) supplemented with 10% fetal calf serum (FCS), L-glutamine, and antibiotics. Transfections with chloramphenicol acetyltransferase (CAT) or luciferase (luc.) reporter constructs were carried out exactly as described previously (Schoonjans et al., 1996). The pGL3-(Jwt)3TKLuc and the pGL3-(Jwt)3TKCAT reporter constructs contain both three tandem repeats of the J site of the apolipoprotein A-II promoter cloned upstream of the herpes simplex virus thymidine kinase (TK) promoter and the luciferase or the CAT reporter genes respectively (Vu-Dac et al., 1995). The following expression vectors were used; pSG5-hPPARγ2, a construct containing the entire cDNA of the human PPARγ2 (hPPARγ2) (Fajas et al., 1997); pSG5-mPPARα (Isseman et al., 1993); and pCMV-βGal, as a control of transfection efficiency.
# PPARγ2 [2] = biological target: T1, PPARγ2; experiment: Transient transfection, PPARγ2 reporter (luciferase/β-galactosidase) in Hep G2 cells; format: cell-based; design: a construct containing the entire cDNA of the human PPARγ2 (hPPARγ2); expressed in transfected cells; host or cells: Hep G2; conditions: HepG2 cells, pSG5-hPPARγ2, 24 h, F-L-leu at 10^−5 M
# Procedure: Hep G2 cells were co-transfected with an expression vector for PPARγ2 (0.1 μg/well), pGL3-(Jwt)3TKLuc reporter construct (0.5 μg/well), and pCMV-βGal (0.5 μg/well), as a control of transfection efficiency (0.5 μg/well). The were then grown during 24 h in the presence or absence of indicated compound Activation is expressed as relative luciferase activity/β-galactosidase activity. Each point was performed in triplicate. This figure is representative of three independent experiments.
# as §1, §2
# db/db mice = conditions: db/db
# Procedure: Intraperitoneal glucose tolerance test (IPGTT) in C57BL/6j (A) or db/db (B) mice 10 to 12 weeks old (n=8).
# All mice were maintained in a temperature-controlled (25° C.) facility with a strict 12 h ? light/dark cycle and were given free access to food (standard mice chow; DO4, UAR ? France) and water.
# C57B1/6J and db/db mice (8 per group) were obtained through the Janvier laboratorie ? (Laval-Le Genest, France).
SMILES,modification of PPARγ activity when added to a saturating concentration of rosiglitazone (PPARγ2 [1]),PPARγ activation (relative luciferase activity/β-galactosidase activity) (PPARγ2 [2]),PPARγ activation (relative luciferase activity/β-galactosidase activity) (PPARγ2 [2]; listed as FMOC substituted L-tyrosine derivative),"maximal glycemia in IPGTT (db/db mice; 10 mg/kg/day i.p., 7 days, DMSO control 500) [mg/dL]","body weight vs control mice (db/db mice; 10 mg/kg/day, 8 days)","fasting serum insulin levels (mean) (db/db mice; 7 days treatment, DMSO group 180) [μUI/mL]"
"CC(C)C[C@@H](NC(=O)OCC1c2ccccc2-c2ccccc21)C(=O)O [FMOC-D-leucine, reference compound]",No significant modification,no significant PPARγ activation,–,–,–,–
"O=C(N[C@@H](Cc1ccc(O)cc1)C(=O)O)OCC1c2ccccc2-c2ccccc21 [FMOC-L-tyrosine, reference compound]",No significant modification,devoid of,did not activate PPARγ,–,–,–
"CN(CCOc1ccc(CC2SC(=O)NC2=O)cc1)c1ccccn1 (centres unmarked) [rosiglitazone, reference compound]",–,–,–,350,tendency to increase body weight,70
